According to patent US20070219213A1, “Use of Adrenergic N-Phenylpiperazine Antagonists, Pahrmaceutical Compositions Containning Them, and Methods of Preparing Them” (priority 2004, published 2007):
Values joined by “and” are separate entries in the source; they are usually repeats but may differ in a detail not shown here. Equal values may be shown once. “Also recorded” adds a separate entry of the source.

How the values were obtained:
[1] = molecular target: T1, alpha 1A subtype (Rattus norvegicus, UniProt P43140); experiment: [3H]prazosin binding assay in rat salivary gland; details: for selectivity index (I.S. alpha 1B/alpha 1A): alpha 1A versus alpha 1B subtype
T1 sequence (P43140 1-466): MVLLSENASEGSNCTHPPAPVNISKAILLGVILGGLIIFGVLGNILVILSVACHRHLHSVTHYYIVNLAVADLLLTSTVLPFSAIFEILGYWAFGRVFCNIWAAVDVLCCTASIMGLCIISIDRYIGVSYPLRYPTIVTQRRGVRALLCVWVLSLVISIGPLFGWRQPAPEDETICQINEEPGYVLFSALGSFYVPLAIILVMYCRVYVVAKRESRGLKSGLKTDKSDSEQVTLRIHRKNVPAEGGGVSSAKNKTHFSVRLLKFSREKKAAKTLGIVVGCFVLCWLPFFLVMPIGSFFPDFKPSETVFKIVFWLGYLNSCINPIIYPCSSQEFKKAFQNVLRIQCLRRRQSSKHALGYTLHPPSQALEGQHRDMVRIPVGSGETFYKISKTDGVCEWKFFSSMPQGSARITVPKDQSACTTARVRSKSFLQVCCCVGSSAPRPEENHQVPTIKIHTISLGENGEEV

[2] = test system: muscarinic cholinergic receptors; experiment: Cobaio (guinea pig) trachea contraction induced by carbacol; type: cell-based; details: 30 microM compound, carbacol 10 microM
From the text: Selectivity Assay for Protein G-Coupled, Beta-Adrenergic, Muscarinic Cholinergic and Histaminergic Bioreceptors
Determination of the Inhibitory Potency (IC50) of LASSBio 772 on Vasoconstriction of the Cobaio (Guinea Pig) Trachea
Cobaios albinos from both sexes, weighing between 400 and 600 g were used in this experiment. The animals were sacrificed by cervical displacement and posterior bleed. Then, their tracheas were removed, kept in 5 microM indometacin added Krebs-Henseleit physiologic solution and oxygenated with carbogenic mixture (95% O2 and 5% CO2), proceeding the removal of the connective and adhered adipose tissue. From these tracheas were obtained segments with 4-6 rings, that are sectioned in the opposite side of the smooth musculature, originating strips used in the contractions assay (ARAKIDA et al., J. Pharmacol. Exper. Therap., 287: 633-639, 1998). […]
After the period, the organ is treated with agonists that will induce contractions. […] The tissue viability was evaluated by contraction induction with histamine 100 microM or carbacol 10 microM. […]
The compound LASSBio 772 was evaluated in the concentration of 30 microM as for its relaxation capability in comparison to contractions induced by carbacol, muscarinic cholinergic agonist, at a 10 microM concentration.

[3] = molecular target: T2, alpha 1D adrenoceptor (rat aorta) (Rattus norvegicus, UniProt P23944); experiment: Vasoconstriction assay in rat aorta induced by norepinephrine; type: cell-based
T2 construct: from tissue; host or cells: rat aorta segments with endothelium
T2 sequence (P23944 1-561): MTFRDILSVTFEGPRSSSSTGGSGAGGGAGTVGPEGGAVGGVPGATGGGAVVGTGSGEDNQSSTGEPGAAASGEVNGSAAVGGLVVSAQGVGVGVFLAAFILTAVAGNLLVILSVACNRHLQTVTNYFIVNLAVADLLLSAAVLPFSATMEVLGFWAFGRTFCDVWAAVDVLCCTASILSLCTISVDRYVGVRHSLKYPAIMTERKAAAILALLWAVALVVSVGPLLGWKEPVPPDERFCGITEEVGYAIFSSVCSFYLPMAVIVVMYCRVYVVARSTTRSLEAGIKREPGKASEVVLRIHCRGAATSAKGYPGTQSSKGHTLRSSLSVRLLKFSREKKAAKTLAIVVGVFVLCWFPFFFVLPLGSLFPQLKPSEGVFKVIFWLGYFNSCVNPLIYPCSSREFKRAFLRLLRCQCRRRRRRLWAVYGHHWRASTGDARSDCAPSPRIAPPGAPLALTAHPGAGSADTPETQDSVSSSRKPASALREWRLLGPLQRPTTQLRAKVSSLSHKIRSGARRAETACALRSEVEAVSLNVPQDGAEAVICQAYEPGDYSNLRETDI
Description: Vasoconstriction Assay in Mouse Aorta Induced By Norepinephrine
Aorta segments with endothelium (3 mm), withdrawn from young male rats (250-300 g), were placed in containers containing physiologic solution (NaCl 122 mM, KCl 5 mM, NaHCO3 15 mM, glucose 11.5 mM, MgCl2 1.2 mM, CaCl2 1.25 mM and KH2PO4 1.2 mM), kept at 37° C. under aeration with a mixture of 95% of O2 and 5% of CO2, and submitted to a pre-charge of 5 mN for 60 minutes. During this period, eventual tension adjustments were performed until the stabilization in 0.5 g, always with renewal with physiologic solution. Then, vasoconstriction was induced by 60 mM KCl solution, in each ring, to verify the viability of the organ on the day of experiment. The preparation was submitted to the contraction with norepinephrine (5×10^−5 M) and, then the rings were washed to reach the basal line (0% of vasoconstriction). The procedure was repeated until the obtainment of a constant curve. Later, a curve, using increasing concentrations of norepinephrine (3×10^−8-5×10^−5 M), was performed for each ring, as a positive control. The segments were washed to reach the basal line (0% of vasoconstriction) and incubated with the test compounds, individually, for 30 minutes. A second norepinephrine curve was performed and obtained data compared to the first control curve. […] The aorta rings were used once for each compound.
Determination of the LASSBio 772 Antagonist Potency (pKB) on the Vasoconstriction of Rabbit or Rat Thoracic Aorta.

COc1ccccc1N1CCN(CCc2ccc3c(c2)OCO3)CC1 [LASSBio 772, 1-(2-1,3-Benzodioxol-5-yl-ethyl)-4-(2-methoxy-phenyl)-piperazine]
IC50 [1]: 260 pM
selectivity indexes of alpha 1A/alpha 1D versus alpha 1B subtype and beta 2, H1 and cholinergic muscarinic receptors [1]: at least a thousand times
selectivity index (I.S. alpha 1B/alpha 1A) [1]: ≥ 1700
selectivity index (I.S. alpha 1B/alpha 1A) ([1]; listed as LASSBio-772): 1730
Ki ([1]; rat salivary gland, Cheng Prussof): 140 pM
inhibition of carbacol-induced contractions [2]: not able to significantly inhibit the contractions; also recorded: did not present any activity
% of Contraction ([2]; n=3): 122.1±8.6%
selectivity index for alpha 1D in comparison to alpha 1B subtype [3]: ≥ 10000
Kb ([3]; pKB, rat aorta, α1D): 13.2 pM and 13.8 pM
affinity for alpha 1D subtype relative to BMY 7378 ([3]; rat aorta): ≥ 430 times
